Results: US20060147348A1, “Sampling device and methods” (priority 2004, published 2006)
Where two headings read alike, the source gives them in different places.

Experiment: Retention of THC in the mouth after smoking marijuana: THC in saliva and tongue mucus by quantitative GC/MS
Assay type: in vivo, human
Conditions: for concentration at 5 min / concentration at 2 h / concentration at 6 h / concentration at 24 h: human, inhaled; for concentration at 5 min: 5 minutes post smoking 0.2 g of marijuana; for concentration at 2 h: 2 hours post smoking 0.2 g of marijuana; for concentration at 6 h: 6 hours post smoking 0.2 g of marijuana; for concentration at 24 h: 24 hours post smoking 0.2 g of marijuana
Source text: 0.2 grams (g) of marijuana was smoked by a test subject. Mucosal surface samples and saliva were collected at different time intervals by scraping the top side of the tongue a polypropylene card having a width×length×thickness of about 2 inches×about 3 inches×about 0.04 inches, using the about 2 inch edge of the card as an abrasive. The mucus specimens were dripped into a glass vial for further analysis. Saliva specimens were collected at the same times by directly expectorating saliva into glass vials.
The specimens were analyzed by a quantitative GC/MS method for the detection of THC.

[1] = saliva (expectorated), read-out: THC Concentration, Saliva
[2] = tongue mucus (mucosal scrapings), mucosal scrapings from the top of the tongue, read-out: THC Concentration, Mucus

CCCCCc1cc(O)c2c(c1)OC(C)(C)[C@@H]1CCC(C)=C[C@@H]21 [THC, Tetrahydrocannabinol]
concentration at 5 min [1]: 115 ng/mL | concentration at 2 h [1]: 16 ng/mL | concentration at 6 h [1]: 11 ng/mL | concentration at 24 h [1]: 2.1 ng/mL | concentration at 5 min [2]: 587 ng/mL | concentration at 2 h [2]: 412 ng/mL | concentration at 6 h [2]: 123 ng/mL | concentration at 24 h [2]: 44 ng/mL | Retention of THC in mucus specimen compared with saliva (mucus vs saliva, 5 minutes to 24 hours after smoking 0.2 g of marijuana): significantly higher concentration and for longer time than in saliva
